The values that follow come from US10851105B2, “Bicyclic heterocycles as FGFR4 inhibitors” (Incyte Corporation, priority 2014, dated 2020).

Like-named read-outs stand apart in the source and are kept apart here.

In assay [1] the target is FGFR4 (Homo sapiens (Human), UniProt P22455). The assay can be described thus: FGFR Enzymatic Assay (FRET peptide phosphorylation), FGFR4.
Experimental: (§1) The inhibitor potency of the exemplified compounds was measured in an enzyme assay that measures peptide phosphorylation using FRET measurements to detect product formation. Inhibitors were serially diluted in DMSO and a volume of 0.5 μL was transferred to the wells of a 384-well plate. For FGFR3, a 10 μL volume of FGFR3 enzyme (Millipore) diluted in assay buffer (50 mM HEPES, 10 mM MgCl2, 1 mM EGTA, 0.01% Tween-20, 5 mM DTT, pH 7.5) was added to the plate and pre-incubated for a time between 5-10 minutes and up to 4 hours. Appropriate controls (enzyme blank and enzyme with no inhibitor) were included on the plate. […] The plate was incubated at 25° C. for 1 hr. […] The plate was allowed to equilibrate for ˜1 hr before scanning the wells on a PheraStar plate reader (BMG Labtech).
(§2) The enzymes were purchased from Millipore or Invitrogen.
(§3) GraphPad prism3 was used to analyze the data. The IC50 values were derived by fitting the data to the equation for a sigmoidal dose-response with a variable slope. Y=Bottom+(Top-Bottom)/(1+10^((Log IC50−X)*HillSlope)) where X is the logarithm of concentration and Y is the response.
The target of assay [2] is FGFR3 (Homo sapiens (Human), UniProt P22607). The assay can be described thus: FGFR Enzymatic Assay (FRET peptide phosphorylation), FGFR3. The settings on record: for FGFR3/FGFR4: IC50 ratio.
FGFR3, sequence (P22607 23-806): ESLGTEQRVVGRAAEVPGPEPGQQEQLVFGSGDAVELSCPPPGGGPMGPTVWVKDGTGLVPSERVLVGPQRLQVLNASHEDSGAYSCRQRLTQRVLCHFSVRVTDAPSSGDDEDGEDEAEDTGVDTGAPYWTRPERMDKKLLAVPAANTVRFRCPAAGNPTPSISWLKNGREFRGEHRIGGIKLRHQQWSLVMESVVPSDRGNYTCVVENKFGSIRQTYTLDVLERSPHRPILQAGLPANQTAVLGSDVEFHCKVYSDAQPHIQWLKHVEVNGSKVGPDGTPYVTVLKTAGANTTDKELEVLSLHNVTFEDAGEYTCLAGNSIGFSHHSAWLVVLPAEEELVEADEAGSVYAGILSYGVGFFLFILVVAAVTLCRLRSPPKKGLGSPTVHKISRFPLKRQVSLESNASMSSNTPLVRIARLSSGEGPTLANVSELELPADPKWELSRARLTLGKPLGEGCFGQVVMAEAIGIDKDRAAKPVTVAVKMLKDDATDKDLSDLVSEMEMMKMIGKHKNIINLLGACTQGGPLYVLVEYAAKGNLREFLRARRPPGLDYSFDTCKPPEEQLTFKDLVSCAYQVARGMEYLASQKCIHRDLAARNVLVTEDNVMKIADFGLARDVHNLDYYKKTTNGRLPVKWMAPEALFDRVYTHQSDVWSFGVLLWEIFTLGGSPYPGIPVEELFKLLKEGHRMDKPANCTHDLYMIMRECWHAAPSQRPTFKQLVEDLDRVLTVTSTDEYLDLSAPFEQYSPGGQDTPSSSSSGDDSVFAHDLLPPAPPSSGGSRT
Experimental: Inhibitors were serially diluted in DMSO and a volume of 0.5 μL was transferred to the wells of a 384-well plate. For FGFR3, a 10 μL volume of FGFR3 enzyme (Millipore) diluted in assay buffer (50 mM HEPES, 10 mM MgCl2, 1 mM EGTA, 0.01% Tween-20, 5 mM DTT, pH 7.5) was added to the plate and pre-incubated for a time between 5-10 minutes and up to 4 hours. Appropriate controls (enzyme blank and enzyme with no inhibitor) were included on the plate. […] The plate was incubated at 25° C. for 1 hr. […] The plate was allowed to equilibrate for ˜1 hr before scanning the wells on a PheraStar plate reader (BMG Labtech).
as §3
The target of assay [3] is FGFR1 (Homo sapiens (Human), UniProt P11362). Description: FGFR Enzymatic Assay (FRET peptide phosphorylation), FGFR1. The following applies: for IC50: FGFR1 IC50 (nM); for FGFR1/FGFR4: IC50 ratio.
FGFR1, sequence (P11362 22-822): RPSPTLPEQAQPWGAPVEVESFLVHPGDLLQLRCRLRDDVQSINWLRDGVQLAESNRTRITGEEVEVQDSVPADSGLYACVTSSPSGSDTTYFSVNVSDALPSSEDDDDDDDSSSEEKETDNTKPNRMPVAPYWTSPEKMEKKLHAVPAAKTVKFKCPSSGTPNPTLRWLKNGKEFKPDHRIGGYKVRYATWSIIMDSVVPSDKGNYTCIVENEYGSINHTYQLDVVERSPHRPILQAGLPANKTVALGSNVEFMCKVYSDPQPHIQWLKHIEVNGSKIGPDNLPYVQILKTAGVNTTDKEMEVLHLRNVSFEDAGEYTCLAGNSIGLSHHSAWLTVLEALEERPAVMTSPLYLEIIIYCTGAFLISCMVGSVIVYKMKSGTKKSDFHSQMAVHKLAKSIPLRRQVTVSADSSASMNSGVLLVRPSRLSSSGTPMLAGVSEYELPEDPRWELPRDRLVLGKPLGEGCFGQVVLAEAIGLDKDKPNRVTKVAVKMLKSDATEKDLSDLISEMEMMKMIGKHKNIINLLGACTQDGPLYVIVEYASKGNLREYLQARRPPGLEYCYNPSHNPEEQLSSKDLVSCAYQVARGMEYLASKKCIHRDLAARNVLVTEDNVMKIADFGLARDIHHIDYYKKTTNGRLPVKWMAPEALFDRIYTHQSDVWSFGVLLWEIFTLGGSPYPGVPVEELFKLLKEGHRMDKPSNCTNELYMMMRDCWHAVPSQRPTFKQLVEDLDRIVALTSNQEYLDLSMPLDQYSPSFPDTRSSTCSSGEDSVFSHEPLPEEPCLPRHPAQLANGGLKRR
Experimental: as §1, §2, §3
Assay [4] deals with FGFR2 (Homo sapiens (Human), UniProt P21802). The assay can be described thus: FGFR Enzymatic Assay (FRET peptide phosphorylation), FGFR2. The following applies: for FGFR2/FGFR4: IC50 ratio.
FGFR2, sequence (P21802 22-821): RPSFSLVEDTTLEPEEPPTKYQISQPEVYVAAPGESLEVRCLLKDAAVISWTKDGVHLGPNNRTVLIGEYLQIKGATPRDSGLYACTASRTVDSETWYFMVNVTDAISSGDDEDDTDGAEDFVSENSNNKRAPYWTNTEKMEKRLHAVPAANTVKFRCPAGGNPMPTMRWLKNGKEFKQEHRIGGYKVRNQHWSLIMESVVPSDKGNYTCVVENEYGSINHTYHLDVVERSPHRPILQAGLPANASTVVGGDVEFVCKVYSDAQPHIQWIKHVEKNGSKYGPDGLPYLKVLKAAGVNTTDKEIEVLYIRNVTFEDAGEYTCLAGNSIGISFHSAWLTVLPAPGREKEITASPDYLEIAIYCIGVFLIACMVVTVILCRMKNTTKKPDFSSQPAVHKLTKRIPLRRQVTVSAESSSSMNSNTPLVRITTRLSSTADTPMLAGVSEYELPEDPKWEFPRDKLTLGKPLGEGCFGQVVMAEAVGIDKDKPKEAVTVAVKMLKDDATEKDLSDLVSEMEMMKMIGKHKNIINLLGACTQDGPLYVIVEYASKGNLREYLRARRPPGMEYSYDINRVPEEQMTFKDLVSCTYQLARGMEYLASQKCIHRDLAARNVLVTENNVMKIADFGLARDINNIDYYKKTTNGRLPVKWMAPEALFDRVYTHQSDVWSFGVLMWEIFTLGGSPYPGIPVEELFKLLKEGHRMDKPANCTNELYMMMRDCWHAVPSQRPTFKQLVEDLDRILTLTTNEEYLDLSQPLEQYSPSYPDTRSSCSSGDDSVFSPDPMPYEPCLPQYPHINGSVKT
Experimental: as §1, §2, §3
[5] abbreviates: FGFR4 IC50 (nM), pre-incubated for 5 to 10 minutes.
Setting [6] is: pre-incubated for 5 to 10 minutes.
[7] abbreviates: read-out: FGFR3 IC50, pre-incubated for 5 to 10 minutes.
[8] abbreviates: read-out: FGFR2 IC50, pre-incubated for 5 to 10 minutes.

The term IC50 denotes the concentration that inhibits the measured activity by half.

FGFR4, sequence (P22455 22-802): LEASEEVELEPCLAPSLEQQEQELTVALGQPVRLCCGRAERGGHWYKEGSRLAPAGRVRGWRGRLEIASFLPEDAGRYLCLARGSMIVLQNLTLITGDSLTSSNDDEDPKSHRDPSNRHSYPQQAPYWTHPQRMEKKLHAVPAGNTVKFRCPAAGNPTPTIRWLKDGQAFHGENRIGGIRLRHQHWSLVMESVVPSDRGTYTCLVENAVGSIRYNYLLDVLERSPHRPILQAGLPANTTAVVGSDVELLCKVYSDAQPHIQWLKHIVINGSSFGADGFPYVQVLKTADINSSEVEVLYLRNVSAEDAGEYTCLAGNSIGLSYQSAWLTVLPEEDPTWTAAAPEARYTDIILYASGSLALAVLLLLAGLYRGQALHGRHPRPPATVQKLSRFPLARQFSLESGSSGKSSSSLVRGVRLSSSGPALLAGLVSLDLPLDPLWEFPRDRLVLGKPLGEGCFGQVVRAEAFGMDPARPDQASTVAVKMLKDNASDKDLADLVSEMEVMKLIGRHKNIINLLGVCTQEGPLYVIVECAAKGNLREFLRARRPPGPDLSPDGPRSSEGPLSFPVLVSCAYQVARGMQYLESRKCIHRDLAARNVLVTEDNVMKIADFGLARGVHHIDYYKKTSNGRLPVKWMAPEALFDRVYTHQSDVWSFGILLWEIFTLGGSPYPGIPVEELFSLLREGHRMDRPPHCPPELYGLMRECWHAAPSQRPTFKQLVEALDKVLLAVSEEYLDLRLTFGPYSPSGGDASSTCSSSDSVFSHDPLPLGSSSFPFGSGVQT

With `C=CC(=O)NC1COCC1Nc1cc2c(cn1)CN(c1c(F)c(OC)cc(OC)c1F)C(=O)C21CC1` (racemic) [Example 4, N-(4-(2′-(2,6-difluoro-3,5-dimethoxyphenyl)-3′-oxo-2′,3′-dihydro-1′H-spiro[cyclopropane-1,4′-[2,7]naphthyridine]-6′-ylamino)tetrahydrofuran-3-yl)acrylamide], the IC50 in assay [1] (setting [5]) is < 10 nM; in assay [1] (FGFR4 IC50 (nM), pre-incubated for 4 hours), < 10 nM; in assay [2] it was > 200 nM; in assay [2] (setting [7]), > 200 nM; in assay [3] (setting [6]), > 200 nM; in assay [3] (pre-incubated for 4 hours), 30 to 200 nM. In addition, the IC50 in assay [4] and in assay [4] (setting [8]) was > 200 nM throughout. The FGFR3/FGFR4 is on record as >10 in assay [2] (setting [6]) and >100 in assay [2] (pre-incubated for 4 hours). Further, the values for the FGFR1/FGFR4 in assay [3] (setting [6]) and in assay [3] (pre-incubated for 4 hours) were >10 and >100, respectively. Also, the FGFR2/FGFR4 in assay [4] (setting [6]) was >10; in assay [4] (pre-incubated for 4 hours), >100.

On to `C=CC(=O)N(C)c1cc2c(cn1)CN(c1c(F)c(OC)cc(OC)c1F)C(=O)C21CC1` [Example 2, N-(2′-(2,6-difluoro-3,5-dimethoxyphenyl)-3′-oxo-2′,3′-dihydro-1′H-spiro [cyclopropane-1,4′-[2,7]naphthyridine]-6′-yl)-N-methylacrylamide], for which the IC50 in assay [1] (setting [5]) was 10 to 30 nM; in assay [1] (read-out: FGFR4 IC50, pre-incubated for 4 hours), < 10 nM; in assay [2], 30 to 200 nM; in assay [2] (setting [7]), > 200 nM; in assay [3] (setting [6]), 30 to 200 nM; in assay [3] (pre-incubated for 4 hours), 30 to 200 nM. The IC50 in assay [4] and in assay [4] (setting [8]) was 30 to 200 nM in each case. Further, the values for the FGFR3/FGFR4 in assay [2] (setting [6]) and in assay [2] (pre-incubated for 4 hours) were >5 and >10, respectively. Moreover, the FGFR1/FGFR4 in assay [3] (setting [6]) is >5; in assay [3] (pre-incubated for 4 hours) it was >10. Also, the FGFR2/FGFR4 in assay [4] (setting [6]) is listed as >2; in assay [4] (pre-incubated for 4 hours) it was >5.
